What was measured:
[1] = system: Balb-C mice; assay: Mammalian toxicity by intraperitoneal injection in mice; format: in vivo; settings: male Balb-C mice, 50 micrograms per mouse (~2 mg/kg), up to 120 hours after treatment
Procedure: Peptide A was tested for mammalian toxicity by intraperitoneal injection in mice. Two male Balb-C mice (~25 grams each) were injected with peptide A in physiological saline, at a dose of 50 micrograms per mouse (~2 mg/kg). Two control mice were injected with an equal volume of saline carrier. The mice were observed continuously for 1.5 hours, and periodically thereafter.

[2] = system: tobacco budworm (TBW), Heliothis virescens; assay: Bioassay: injection into the abdomen of fifth instar tobacco budworm larvae, paralysis; format: in vivo; settings: probit regression
Procedure: Whole venom was isolated by known techniques from the spider, Calisoga. The whole venom, or peptides purified therefrom, were dissolved in sterile buffered physiological saline. For testing and characterization purposes, venom and toxins were administered by injection into the abdomen of fifth instar larvae of the tobacco budworm (TBW), Heliothis virescens. Control larvae were injected with an equal volume of saline. After treatment, the insects were placed individually in Petri dishes, with food, and observed.
Insects that could not right themselves within thirty seconds of being placed on their backs or side were considered paralyzed. Fifty percent paralytic dose (PD50) values were calculated by probit regression (see Example 2). Raymond, M., Ser. Ent. med et Parasitol, 22(2), 117-121 (1985).
Whole venom from a spider, Calisoga sp. (Aranae: Nemesiidae), was dissolved in the desired volume of sterile, buffered physiological saline. Samples were administered by injection into the abdomen of the fifth instar larvae of the tobacco budworm, Heliothis virescens, as previously described. Control larvae were injected with equal volumes of saline.

[3] = system: Manduca sexta larvae; settings: toxin secreted in the course of infection by recombinant baculovirus; unnatural host; cited from earlier work
[4] = system: Heliothis virescens larvae; settings: toxin secreted in the course of infection by recombinant baculovirus; natural host; cited from earlier work

Molecule	mammalian toxicity: effects observed [1]	PD50 95% confidence interval [2] [µg/g]	PD50 (fifty percent paralytic dose) [2] [µg/g]	effect on larvae (paralysis) [3]	effect on larvae (paralysis) [4]
peptide A (CISARYPCSNSKDCCSGNCGTFWTCYIRKDPCSKECLAP)	No effects were noted	1.70 to 3.22	2.37		
peptide B (CISARYPCSNSKDCCSGNCGTFWTCFIRKDPCSKECLAP)		1.72 to 8.0	3.7		
AaIT: scorpion peptide insect toxin expressed from a recombinant baculovirus (McCutchen et al. 1991) (protein, UniProt P01497 19-88, looked up) Beta-insect excitatory toxin 1: KKNGYAVDSSGKAPECLLSNYCNNECTKVHYADKGYCCLLSCYCFGLNDDKKVLEISDTRKSYCDTTIIN				caused paralysis	caused paralysis
